“Also recorded” adds a separate entry of the source.

Consider three compounds from patent US20210024498A1, “TETRAHYDROPYRROLE COMPOUND, PREPARATION METHOD THEREFOR, PHARMACEUTICAL COMPOSITION CONTAINING SAME, AND USE THEREOF” (MEDICONNS (SHANGHAI) BIOPHARMACEUTICAL CO., LTD, priority 2017, published 2021).

For assay [1], the target named is T1, D2 receptor (Homo sapiens, UniProt P14416).
T1 construct: expressed in transfected cells; host or cells: HEK293
Put plainly: D2 receptor affinity assay (radioligand competition, 3H-7-OH-DPAT). Particulars: cloned D2 receptor expressed in HEK293 cell line; 3H-7-OH-DPAT 1 nM. It is filed as binding. Here is the method:
Bioactivity Test • I. D2 receptor affinity assay: The affinity of the compound to D2 receptor was determined by radioligand competition assay, and the cloned D2 receptor was expressed in HEK293 cell line. • II. D2 receptor function assay: The ability of the compound to antagonize the D2 receptor was determined using a calcium mobilization assay (FLIPR). • III. DAT receptor function assay: The ability of the compound to inhibit DAT was determined by neurotransmitter transporter absorption assay.
• Experimental buffer: 50 mM Tris-HCl, pH 7.4, 5 mM MgCl2 • Washing buffer: 50 mM Tris-HCl pH 7.4, stored at 4° C. ready for use.
• The compound and positive control 7-OH-DPAT were serially diluted with DMSO, with the initial concentration of 2 mM and 4 times serial dilution, a total of 10 concentrations. 1 μL was transferred to the designated position of the 96-well plate. • 1 μL droperidol (final concentration 10 μM) was added to the positive control well. 1 μL DMSO was added to the negative control well.
• Receptor cell membrane was diluted to 10 μg/well with corresponding experimental buffer, with 100 μL cell membrane/well.
• 3H-7-OH-DPAT was diluted to 2 nM with corresponding experimental buffer, and the final concentration was 1 nM.
• After 100 μL of cell membrane and isotope were added, respectively, the reaction plate of the D2 receptor was incubated at room temperature for 1 hour. The GF/C filter plate was soaked in 0.3% PEI solution for more than half an hour. After the reaction was completed, the cell membrane was collected on the GF/C filter plate using the […], washed 4 times with cold washing buffer, and then dried in an oven at 50° C. for 1 hour. The dried GF/C filter plate was sealed at the bottom, 50 μL of scintillation fluid was added to each well and the well was sealed. Reads were obtained by MicroBeta and the data was analyzed using GraphPad Prism 5.0.
Ki=IC50/(1+isotope concentration/Kd)

Assay [2] concerns PCP-induced high locomotor activity in mice. Kind of assay: Phencyclidine (PCP) induced high locomotor activity (LMA) in mice. It is filed as in vivo. Details: Distance resulting from the activity, First 30 min / Distance resulting from the activity, Last 30 min: unit not given here. Particulars: for Effect on PCP-induced high locomotor activity compared with olanzapine (in words) / Inhibition of PCP-induced high locomotor activity (in words): 5, 10, 20 mg/kg; for Effect on PCP-induced high locomotor activity compared with olanzapine (in words): p.o. vs olanzapine 5 mg/kg p.o.; for Inhibition of PCP-induced high locomotor activity (in words): p.o., P<0.05-0.01; for Distance resulting from the activity, First 30 min / Distance resulting from the activity, Last 30 min: PCP 5.0 mg/kg s.c., male ICR mice. The source says:
• 1. The effect of the compound on phencyclidine (PCP) induced high locomotor activity (LMA) in mice was detected.
The test compound MDC was milky white powder and stored in a shade and cool place (freshly formulated with 1% DMSO before use). […] Phencyclidine (PCP), purchased from Sigma Aldrich, was a grayish white powder (freshly formulated with normal saline before use). 1% DMSO was formulated by diluting pure DMSO (purity>99.5, purchased from Sigma-Aldrich) with normal saline.
Male ICR mice having weight 22±2 g were kept at 8 mice/cage with 12/12 hours light/dark cycle, temperature 23° C.±1° C., humidity 50% to 60%, free to eat and drink water.
The administration volume was 0.1 ml/10 g body weight; PCP was formulated with normal saline at a dose of 5 mg/kg.
The test compound MDC and olanzapine were administered by gavage and PCP was administered by subcutaneous injection.
After one week of acclimation, mice were randomly divided into 6 groups according to their body weight: negative control group, model group, positive control group, and low dose group, medium dose group and high dose group for the test compound. 8-10 animals/group.
Group 1: Negative control group: Normal saline (s.c.)+1% DMSO (10.0 ml/kg, p.o.);
Group 2: Model group: PCP (5.0 mg/kg, s.c.)+1% DMSO (10.0 ml/kg, p.o.);
Group 4: MDC low dose group: PCP (5.0 mg/kg, s.c.)+MDC (5 mg/kg, p.o.);
Group 5: MDC medium dose group: PCP (5.0 mg/kg, s.c.)+MDC (10 mg/kg, p.o.);
Group 6: MDC high dose group: PCP (5.0 mg/kg, s.c.)+MDC (20 mg/kg, p.o.).
After oral administration, the animals were immediately placed in a locomotor activity box and recorded by Shanghai Jiliang ( ? ) animal video analysis system for 1 hour.
After the experiment, the activity of the animals within 1 hour was analyzed using the trajectory analysis software of Shanghai Jiliang animal video analysis system to obtain the total distance resulting from the activity.

Setting [3] is: 5 mg/kg p.o. (low dose group; olanzapine positive control).
The mark [4] stands for this setting: 10 mg/kg p.o. (medium dose group).
The mark [5] stands for this setting: 20 mg/kg p.o. (high dose group).

T1 sequence (P14416 whole entry): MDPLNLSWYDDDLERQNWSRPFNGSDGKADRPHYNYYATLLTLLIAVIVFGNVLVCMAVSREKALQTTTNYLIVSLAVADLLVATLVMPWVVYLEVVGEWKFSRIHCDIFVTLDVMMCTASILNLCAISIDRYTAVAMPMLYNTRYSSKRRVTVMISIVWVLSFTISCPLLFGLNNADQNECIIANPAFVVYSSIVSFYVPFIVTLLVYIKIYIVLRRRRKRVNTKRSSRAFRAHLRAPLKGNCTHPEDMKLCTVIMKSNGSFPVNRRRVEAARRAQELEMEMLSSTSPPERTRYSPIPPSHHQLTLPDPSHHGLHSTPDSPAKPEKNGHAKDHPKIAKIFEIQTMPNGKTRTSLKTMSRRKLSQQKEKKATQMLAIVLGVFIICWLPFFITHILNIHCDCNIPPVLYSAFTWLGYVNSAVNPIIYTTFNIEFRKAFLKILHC

On to `Oc1cccc(C2CCN(Cc3c[nH]c4ccccc34)C2)c1` (racemic) [MDC-161502-002, 1-(indole-3-methyl)-3-(3-hydroxyphenyl)pyrrolidine], for which the IC50 in assay [1] came to 14 nM. Moreover, the “Effect on PCP-induced high locomotor activity compared with olanzapine (in words)” value in assay [2] is listed as “equivalent to the effect of the positive drug olanzapine; also recorded: significant advantages over olanzapine”. Further, the “Inhibition of PCP-induced high locomotor activity (in words)” value in assay [2] is “inhibited PCP-induced high locomotor activity in mice”. In addition, the results for the “Distance resulting from the activity, First 30 min” value (“Distance resulting … First 30 min” below) in assay [2] (setting [3]), in assay [2] (setting [4]) and in assay [2] (setting [5]) were 241185, 211543 and 158231, respectively. For the same compound, the “Distance resulting from the activity, Last 30 min” value (shortened to “Distance resulting … Last 30 min”) stood at 265712 in assay [2] (setting [3]), 206789 in assay [2] (setting [4]) and 110918 in assay [2] (setting [5]).
On to `O=S(=O)(CC(F)(F)F)Nc1cccc(C2CCN(Cc3c[nH]c4ccccc34)C2)c1` (stereo not drawn) [MDC-161502-006, 1-(indole-3-methyl)-3-(3-trifluoroethanesulfonamidophenyl)pyrrolidine], for which the IC50 in assay [1] worked out at 639 nM. Moreover, the “Distance resulting … First 30 min” value in assay [2] (setting [3]) is on record as 327586; in assay [2] (setting [4]), 286745; in assay [2] (setting [5]) it was 248576. Also, the “Distance resulting … Last 30 min” value in assay [2] (setting [3]) amounted to 302499; in assay [2] (setting [4]), 267834; in assay [2] (setting [5]), 230867.
In assay [1], `O=S(=O)(Nc1cccc(C2CCN(Cc3c[nH]c4ccccc34)C2)c1)c1cccs1` (stereo not drawn) [MDC-161502-008, 1-(indole-3-methyl)-3-[3-(2-thiophenesulfonamido)phenyl]pyrrolidine] gave an IC50 of 120 nM. Also, in assay [2], the “Effect on PCP-induced high locomotor activity compared with olanzapine (in words)” value is recorded as “equivalent to the effect of the positive drug olanzapine” and the “Inhibition of PCP-induced high locomotor activity (in words)” value is “inhibited PCP-induced high locomotor activity in mice”. Also, the “Distance resulting … First 30 min” value in assay [2] (setting [3]) amounted to 299745. Moreover, in assay [2] (setting [4]), the “Distance resulting … First 30 min” value was determined as 246900 and the “Distance resulting … Last 30 min” value was found to be 230876. For the same compound, in assay [2] (setting [5]), the “Distance resulting … First 30 min” value was found to be 220968 and the “Distance resulting … Last 30 min” value is listed as 189765.
